Our source for the IC50 and Kd values is patent US5688666A, “Growth hormone variants with altered binding properties” (Genentech, Inc., priority 1994, dated 1997).

Test [1] has as its target Mab 4 (monoclonal antibody to hGH). Nature of the test: Binding of Mab 4 to hGH and hGH phagemid particles (ELISA). The following applies: read-out: IC50 (concentration to give half-maximal binding to the Mab). On the procedure:
(§1) After 2 hours at room temperature (rt), the plates were washed well and the indicated Mab (Cunningham et al. supra) was added at 1 μg/ml in buffer A for 2 hours at rt. Following washing, horseradish peroxidase conjugated goat anti-mouse IgG antibody was bound at rt for 1 hour. After a final wash, the peroxidase activity was assayed with the substrate, o-phenylenediamine.

Test [2] deals with Mab 6 (monoclonal antibody to hGH). Briefly: Binding of Mab 6 to hGH and hGH phagemid particles (ELISA). The conditions noted are these: read-out: IC50 (concentration to give half-maximal binding to the Mab). The method, then:
as §1

Test [3] deals with Mab 8 (monoclonal antibody to hGH). Briefly: Binding of Mab 8 to hGH and hGH phagemid particles (ELISA). The following applies: read-out: IC50 (concentration to give half-maximal binding to the Mab). The method, then: as §1
Test [4] deals with Mab 2 (monoclonal antibody to hGH). Briefly: Binding of Mab 2 to hGH and hGH phagemid particles (ELISA). The conditions noted are these: read-out: IC50 (concentration to give half-maximal binding to the Mab). The method, then: as §1
Test [5] deals with Mab 7 (monoclonal antibody to hGH). Nature of the test: Binding of Mab 7 to hGH and hGH phagemid particles (ELISA). The conditions noted are these: read-out: IC50 (concentration to give half-maximal binding to the Mab). The method, then: as §1
Test [6] has as its target Mab 1 (monoclonal antibody to hGH). Briefly: Binding of Mab 1 to hGH and hGH phagemid particles (ELISA). The following applies: read-out: IC50 (concentration to give half-maximal binding to the Mab). On the procedure:
as §1

The target in test [7] is Mab 5 (monoclonal antibody to hGH). Briefly: Binding of Mab 5 to hGH and hGH phagemid particles (ELISA). The following applies: read-out: IC50 (concentration to give half-maximal binding to the Mab). On the procedure: as §1
Test [8] addresses Mab 3 (monoclonal antibody to hGH). Briefly: Binding of Mab 3 to hGH and hGH phagemid particles (ELISA). The conditions noted are these: read-out: IC50 (concentration to give half-maximal binding to the Mab). The method, then:
as §1

Test [9] has as its target anti-β endorphin monoclonal antibody. The conditions noted are these: cited from earlier work.

As for Human growth hormone [hGH], the IC50 was 0.1 nM in [1]; 0.07 nM in test [2]; 0.1 nM in [3]; 0.04 nM in test [4]; 0.1 nM in [5]; 0.4 nM in [6]. Besides, the IC50 in test [7] and in test [8] was 0.2 nM in each case.

Take “β-endorphin peptide: parent β-endorphin peptide sequence recognised by the anti-β endorphin monoclonal antibody”: in test [9], the Kd was roughly 7 nM.
